In the assay the test system is anti-diacetoxyscirpenol monoclonal antibody secreted by hybridoma cell strain DAS5G11E7. The class given is binding, mouse.
Consider `C[C@@H]1Cc2c(Cl)cc(C(=O)N[C@@H](Cc3ccccc3)C(=O)O)c(O)c2C(=O)O1` [OTA, ochratoxin], for which the Cross reactivity is reported as less than 0.01%.

With 3-acetyldeoxynivalenol [3-acetyl-DON], the Cross reactivity is on record as less than 0.01%. For `CC1=CC2O[C@@H]3[C@H](O)C[C@](C)(C2(CO)C(O)C1=O)[C@]31CO1` (stereo partly shown) [DON, vomitoxin], the Cross reactivity is on record as less than 0.01%. In turn, HT-2 toxin came in with a Cross reactivity of less than 0.01%.

The values above are taken from patent publication US11635429B2 (priority 2019, dated 2023).
